The source of these data is patent US10095829B2, “Computer implemented methods of treating lung cancer” (WORLDWIDE INNOVATIVE NETWORK, priority 2009, dated 2018).

Experiment [1] concerns non-small cell lung carcinoma (NSCLC), cT4, N0, M1. Put plainly: Clinical course under treatment, patient of Example 1. It is filed as in vivo, human. To be noted: Example 1 patient, new subclavious metastasis.
From the text: The patient was a person. They suffered of a non-small cell lung carcinoma (NSCLC), cT4, N0, M1. […] For HKI 272, the patient has been included in a clinical trial.
Lapatinib, an anti-HER1 and -HER2 inhibitor, was justified, even if no mutation was detected in EGFR, because EGF overexpressed 15 folds in the patient and it was needed to continue HKI 272.
The subject of experiment [2] is primary bronchial adenocarcinoma with bilateral pulmonary metastases and asymptomatic cerebral metastases. As to the kind of experiment: Clinical course under treatment, patient of Example 3. To be noted: Example 3 patient. It is filed as in vivo, human. An excerpt: A patient was diagnosed in May 2007 for a primary bronchial adenocarcinoma with bilateral pulmonary metastases and asymptomatic cerebral metastases. A surgical treatment has been carried out in November 2008 and two therapeutic lines have been used, namely thirteen cycles of cisplatin-gemcitabin for the first line and Alimta for the second one.
However, based on this score table, avastin associated with a score of 384 has been selected.

The test system of experiment [3] is bronchial adenocarcinoma T4 with bones and pleural metastases. To be noted: Example 2 patient; for Clinical outcome: bronchial adenocarcinoma.

As to `CCOc1cc2ncc(C#N)c(Nc3ccc(OCc4ccccn4)c(Cl)c3)c2cc1NC(=O)/C=C/CN(C)C` [HKI 272], the “Duration of treatment until disease progression was observed” value in experiment [1] worked out at 37 months. Take “BEVACIZUMAB: VEGFA gene is regarded as major target gene for bevacizumab”: the Clinical outcome in experiment [2] is “major response has been observed after two treatment cycles”. Take `CCC1=C[C@@H]2CN(C1)Cc1c([nH]c3ccccc13)[C@@](C(=O)OC)(c1cc3c(cc1OC)N(C)[C@H]1[C@@](O)(C(=O)OC)[C@H](OC(C)=O)[C@]4(CC)C=CCN5CC[C@]31[C@@H]54)C2` [VINORELBINE]: in experiment [3], the Clinical outcome is “the disease was stable, then progressed”. The Survival conferred entry in experiment [3] (treatment since January 2010) was “three months survival”.

Take `Nc1nc2[nH]cc(CCc3ccc(C(=O)N[C@@H](CCC(=O)O)C(=O)O)cc3)c2c(=O)[nH]1` [PEMETREXED]: in experiment [2], the Clinical outcome is reported as “only associated with a disease progression”. `C#Cc1cccc(Nc2ncnc3cc(OCCOC)c(OCCOC)cc23)c1` [Tarceva]: the Clinical outcome in experiment [3] is “inefficient and led to a rapid progression”.
